Measurements from patent publication US12558363B2, “Compositions for clinical complications associated to devices implanted in the urinary tract” (Devicare SL, priority 2019, dated 2026).
Several values for one entry are separate records, joined by “and”; a condition that tells them apart may be missing. Equal values may be shown once. Entries after “also recorded” stand apart in the source; their conditions may differ.

Tests used:
Mucin = test: Conditioning film generation: accumulated protein on medical device fragment in continuous flow artificial urine system (Lowry); settings: for Quantity of accumulated protein (Mucin), Experiment 1 / Quantity of accumulated protein (Mucin), Experiment 2: 48 hours irrigation of Tygon fragment, pH 6.5; for Quantity of accumulated protein (Mucin), Experiment 1 / Quantity of accumulated protein (Mucin), Experiment 2 / Quantity of accumulated protein (Mucin), Average: NAC 20 mg/L and/or phytate 2 ppm; for Quantity of accumulated protein (Mucin), Average: average of Experiments 1 and 2, 48 hours; for Reduction in the precipitation of protein, compounds tested individually: phytate 2 ppm or NAC 20 mg/L alone, compared with the combination
[1] = test system: Pseudomonas aeruginosa PAO1; type: cell-based; settings: 24 h
[2] = Struvite crystal formation/adhesion on catheter portions in artificial urine; settings: for Struvite crystals formation ratio (crystals without phytate divided by crystals with phytate) / # struvite crystals with phytate (2 ppm): phytate 2 ppm; for # struvite crystals with phytate (2 ppm): pH 7.2, 37° C., not washed catheter portion

Structure (SMILES) | Quantity of accumulated protein (Mucin), Experiment 1 (Mucin) | Quantity of accumulated protein (Mucin), Experiment 2 (Mucin) | Quantity of accumulated protein (Mucin), Average (Mucin) | Reduction in the precipitation of protein, compounds tested individually (Mucin) | Number of adhered bacteria in the surface of incubated catheters [1] | Struvite crystals adhered in catheters ([2]; 9.28 g/L NH4+, 1 ppm phytate (FIG. 3B)) | Struvite crystals adhered in catheters ([2]; 18.56 g/L NH4+, 1 ppm phytate (FIG. 3D)) | Size of struvite crystals formed (electron microscopy) ([2]; 24 h) | Struvite crystals formation ratio (crystals without phytate divided by crystals with phytate) ([2]; time of reaction 12 hours) | # struvite crystals with phytate (2 ppm) ([2]; time of reaction 12 hours) | Struvite crystals formation ratio (crystals without phytate divided by crystals with phytate) ([2]; time of reaction 24 hours) | # struvite crystals with phytate (2 ppm) ([2]; time of reaction 24 hours)
CC(=O)N[C@@H](CS)C(=O)O [NAC, N-acetylcysteine, reference compound] | 30.0 mg/L | 66.5 mg/L | 48.3 mg/L | a reduction in the precipitation was observed but of less intensity | – | – | – | – | – | – | – | –
O=P(O)(O)O[C@H]1[C@H](OP(=O)(O)O)[C@@H](OP(=O)(O)O)[C@H](OP(=O)(O)O)[C@@H](OP(=O)(O)O)[C@H]1OP(=O)(O)O [phytate, myo-inositol-hexaphosphate] | 33.0 mg/L | 57.5 mg/L | 45.3 mg/L | a reduction in the precipitation was observed but of less intensity | significative decrease; also recorded: lower | 2 crystals | 5 crystals | smaller than the crystals formed in absence of phytate | 1.45 | 20 | 3.85 and 2.4 | 6.5 and 5
